Source: article PMC7594088

Test: ring-closing metathesis (C=C bond) of side-chain olefins, second-generation Grubbs catalyst 20 mol %, under argon, 2 h
Details: CH2Cl2, 20.0 mM, 25.0 °C

COC(=O)[C@@H]1COCC=CCO[C@H]2C[C@@H](C(=O)N1)N(C(=O)OC(C)(C)C)C2 [Boc-cis-Hyp(OAllyl)-Ser(OAllyl)-OMe (cis-4-hydroxy-L-Pro)]
ring closure, isolated yield (from C=CCOC[C@H](NC(=O)[C@@H]1C[C@H](OCC=C)CN1C(=O)OC(C)(C)C)C(=O)OC, 13-membered ring, 2.0 h): 55%

COC(=O)C1(NC(=O)[C@H](CC(C)C)NC(=O)[C@H](CC(C)C)NC(=O)C2(NC(=O)[C@H](CC(C)C)NC(=O)[C@H](CC(C)C)NC(=O)[C@@H]3COCCCC=CCO[C@H]4C[C@@H](C(=O)N3)N(C(=O)OC(C)(C)C)C4)CCCC2)CCCC1
ring closure, isolated yield (from C=CCCCOC[C@H](NC(=O)[C@@H]1C[C@H](OCC=C)CN1C(=O)OC(C)(C)C)C(=O)N[C@@H](CC(C)C)C(=O)N[C@@H](CC(C)C)C(=O)NC1(C(=O)N[C@@H](CC(C)C)C(=O)N[C@@H](CC(C)C)C(=O)NC2(C(=O)OC)CCCC2)CCCC1, 15-membered ring, 2.0 h): 93%

COC(=O)C1(NC(=O)[C@H](CC(C)C)NC(=O)[C@H](CC(C)C)NC(=O)C2(NC(=O)[C@H](CC(C)C)NC(=O)[C@H](CC(C)C)NC(=O)[C@@H]3COCC=CCO[C@H]4C[C@@H](C(=O)N3)N(C(=O)OC(C)(C)C)C4)CCCC2)CCCC1
ring closure, isolated yield (from C=CCOC[C@H](NC(=O)[C@@H]1C[C@H](OCC=C)CN1C(=O)OC(C)(C)C)C(=O)N[C@@H](CC(C)C)C(=O)N[C@@H](CC(C)C)C(=O)NC1(C(=O)N[C@@H](CC(C)C)C(=O)N[C@@H](CC(C)C)C(=O)NC2(C(=O)OC)CCCC2)CCCC1, 13-membered ring): 0%

COC(=O)C1(NC(=O)[C@H](CC(C)C)NC(=O)[C@H](CC(C)C)NC(=O)[C@@H]2COCCCC=CC[C@]3(CCCN3C(=O)OCc3ccccc3)C(=O)N[C@@H](CC(C)C)C(=O)N[C@@H](CC(C)C)C(=O)N2)CCCC1
ring closure, isolated yield (from C=CCCCOC[C@H](NC(=O)[C@H](CC(C)C)NC(=O)[C@H](CC(C)C)NC(=O)[C@]1(CC=C)CCCN1C(=O)OCc1ccccc1)C(=O)N[C@@H](CC(C)C)C(=O)N[C@@H](CC(C)C)C(=O)NC1(C(=O)OC)CCCC1, 18-membered ring, 2.0 h): 96%

COC(=O)[C@@H]1COCC=CCO[C@@H]2C[C@@H](C(=O)N1)N(C(=O)OC(C)(C)C)C2
ring closure, isolated yield (from C=CCOC[C@H](NC(=O)[C@@H]1C[C@@H](OCC=C)CN1C(=O)OC(C)(C)C)C(=O)OC, 13-membered ring): 0%
